These results are taken from patent US20070179154A1, “Coumarin derivatives, process for their production and use thereof” (Takeda Pharmaceutical Company Limited, priority 2002, published 2007).

On to `Cc1cc2c(-c3cccc(Cc4noc(=O)[nH]4)c3)c(CC(=O)Nc3ccc(F)cc3C(F)(F)F)c(=O)oc2cc1Cl` [Example 100], for which the melting point was 161 to 164 °C.
The result for `Cc1cc2c(-c3cccc(Cc4noc(=O)[nH]4)c3)c(CC(=O)Nc3ccccc3C(F)(F)F)c(=O)oc2cc1Cl` [Example 101] reads 295 °C (dec.); that for `Cc1cc2c(-c3cccc(-c4noc(=S)[nH]4)c3)c(CC(=O)Nc3ccc(F)cc3C(F)(F)F)c(=O)oc2cc1Cl` [Example 102, 2-{7-chloro-6-methyl-2-oxo-4-[3-(5-thioxo-4,5-dihydro-1,2,4-oxadiazol-3-yl)phenyl]-2H-chromen-3-yl}-N-[4-fluoro-2-(trifluoromethyl)phenyl]acetamide], 178 to 180 °C; that for `Cc1cc2c(-c3cccc(-c4nsc(=O)[nH]4)c3)c(CC(=O)Nc3ccc(F)cc3C(F)(F)F)c(=O)oc2cc1Cl` [Example 104, 2-{7-chloro-6-methyl-2-oxo-4-[3-(5-oxo-4,5-dihydro-1,2,4-thiadiazol-3-yl)phenyl]-2H-chromen-3-yl}-N-[4-fluoro-2-(trifluoromethyl)phenyl]acetamide], 269 to 271 °C (dec.).
The compound `COC(=O)c1cccc(-c2c(CC(=O)Nc3ccc(F)cc3C(F)(F)F)c(=O)oc3cc(Cl)c(CN4CCN(c5ccccc5)CC4)cc23)c1` [Example 108] gave a melting point of 135 to 137 °C.
Compound `COC(=O)c1cccc(-c2c(CC(=O)Nc3ccc(Cl)cc3C(F)(F)F)c(=O)oc3cc(Cl)c(CN4CCN(c5ccccc5)CC4)cc23)c1` [Example 109] displayed a melting point of 130 to 132 °C.
The result for `Cc1cc2c(-c3cccc(C(=O)NC(C)C)c3)c(CC(=O)Nc3ccc(Cl)cc3C(F)(F)F)c(=O)oc2cc1Cl` [Example 121] reads 215 to 217 °C; that for `Cc1cc2c(-c3cccc(C(=O)NC(C)(C)C)c3)c(CC(=O)Nc3ccc(Cl)cc3C(F)(F)F)c(=O)oc2cc1Cl` [Example 122], 206 to 208 °C.
